Species on record: Rattus norvegicus
Assay: Open TG-GATES - Regimen: Daily Repeat
Format: toxicity, organism-based, Sprague-Dawley
Design: regimen Daily Repeat, gender Male, age 6 weeks
Settings: in vivo, po, route gavage; for APTT / Bas / Eos / Fbg / Hb / Ht / Lym / MCH / MCHC / MCV / Mono / Neu / PT / Plat / RBC / Ret / WBC: tissue Blood; for KIDNEY_L / KIDNEY_R / KIDNEY_TOTAL: tissue Kidney; for LIVER: tissue Liver; for A/G / ALP / ALT / AST / BUN / CRE / Ca / Cl / DBIL / GLC / IP / K / LDH / Na / PL / RALB / TBIL / TC / TG / TP / gamma-GTP: tissue Plasma
[1] = 300 mg/kg, 72 h, dose level Middle, time 3 day
[2] = 300 mg/kg, […], dose level Middle, time 7 day
[3] = 300 mg/kg, […], dose level Middle, time 14 day
[4] = 300 mg/kg, […], dose level Middle, time 28 day
[5] = 1000 mg/kg, 72 h, dose level High, time 3 day
[6] = 1000 mg/kg, […], dose level High, time 7 day
[7] = 1000 mg/kg, […], dose level High, time 14 day
[8] = 1000 mg/kg, […], dose level High, time 28 day

CCN1CCCC1CNC(=O)c1cc(S(N)(=O)=O)ccc1OC (centres undefined) [SULPIRIDE]
TERMINAL_BW [1]: 234.7 g
APTT [1]: 16.7 s
Bas [1]: 0%
Eos [1]: 1%
Fbg [1]: 278.2 mg/dL
Hb [1]: 13.4 g/dL
Ht [1]: 40.9%
Lym [1]: 78.8%
MCH [1]: 20.6 pg
MCHC [1]: 32.8%
MCV [1]: 62.7 fL
Mono [1]: 3.4%
Neu [1]: 16.2%
PT [1]: 13.1 s
Plat [1]: 118.8 x10_4/uL
RBC [1]: 653.4 x10_4/ul
Ret [1]: 6.5%
WBC [1]: 94.6 x10_2/uL
KIDNEY_L [1]: 1 g
KIDNEY_R [1]: 1 g
KIDNEY_TOTAL [1]: 2.1 g
LIVER [1]: 11.7 g
A/G [1]: 0.9
ALP [1]: 1582.2 IU/L
ALT [1]: 44 IU/L
AST [1]: 65.8 IU/L
BUN [1]: 14.6 mg/dL
CRE [1]: 0.2 mg/dL
Ca [1]: 11.1 mg/dL
Cl [1]: 103.2 meq/L
DBIL [1]: 0.01 mg/dL
GLC [1]: 182 mg/dL
IP [1]: 8 mg/dL
K [1]: 4.4 meq/L
LDH [1]: 78.2 IU/L
Na [1]: 139.6 meq/L
PL [1]: 147.8 mg/dL
RALB [1]: 2.7 g/dL
TBIL [1]: 0.056 mg/dL
TC [1]: 78.4 mg/dL
TG [1]: 92.8 mg/dL
TP [1]: 5.7 g/dL
gamma-GTP [1]: 1 IU/L
TERMINAL_BW [2]: 265.3 g
TERMINAL_BW [3]: 329.3 g
TERMINAL_BW [4]: 375.2 g
APTT [2]: 16.9 s
Bas [2]: 0%
Eos [2]: 1%
Fbg [2]: 297.2 mg/dL
Hb [2]: 13.8 g/dL
Ht [2]: 41.8%
Lym [2]: 81.8%
MCH [2]: 20 pg
MCHC [2]: 33%
MCV [2]: 60.4 fL
Mono [2]: 2.2%
Neu [2]: 14.4%
PT [2]: 13.1 s
Plat [2]: 123.9 x10_4/uL
RBC [2]: 692.4 x10_4/ul
Ret [2]: 4.9%
WBC [2]: 113 x10_2/uL
APTT [3]: 16.8 s
Bas [3]: 0.2%
Eos [3]: 1%
Fbg [3]: 295.2 mg/dL
Hb [3]: 14.7 g/dL
Ht [3]: 44.1%
Lym [3]: 78.4%
MCH [3]: 20 pg
MCHC [3]: 33.4%
MCV [3]: 60 fL
Mono [3]: 2.2%
Neu [3]: 17.2%
PT [3]: 13.2 s
Plat [3]: 121.1 x10_4/uL
RBC [3]: 736 x10_4/ul
Ret [3]: 4.1%
WBC [3]: 102.3 x10_2/uL
APTT [4]: 17.4 s
Bas [4]: 0.2%
Eos [4]: 1.2%
Fbg [4]: 265 mg/dL
Hb [4]: 15.8 g/dL
Ht [4]: 45.8%
Lym [4]: 76.4%
MCH [4]: 19.4 pg
MCHC [4]: 34.5%
MCV [4]: 56.1 fL
Mono [4]: 1.8%
Neu [4]: 20%
PT [4]: 13.4 s
Plat [4]: 114.4 x10_4/uL
RBC [4]: 817 x10_4/ul
Ret [4]: 2.1%
WBC [4]: 109.3 x10_2/uL
KIDNEY_L [2]: 1.1 g
KIDNEY_R [2]: 1.1 g
KIDNEY_TOTAL [2]: 2.1 g
KIDNEY_L [3]: 1.3 g
KIDNEY_R [3]: 1.2 g
KIDNEY_TOTAL [3]: 2.5 g
KIDNEY_L [4]: 1.3 g
KIDNEY_R [4]: 1.4 g
KIDNEY_TOTAL [4]: 2.7 g
LIVER [2]: 12.5 g
LIVER [3]: 14.2 g
LIVER [4]: 14 g
A/G [2]: 0.8
ALP [2]: 1497.6 IU/L
ALT [2]: 46.8 IU/L
AST [2]: 65.8 IU/L
BUN [2]: 17 mg/dL
CRE [2]: 0.2 mg/dL
Ca [2]: 11 mg/dL
Cl [2]: 104.2 meq/L
DBIL [2]: 0.01 mg/dL
GLC [2]: 182.2 mg/dL
IP [2]: 8.1 mg/dL
K [2]: 4.2 meq/L
LDH [2]: 54.4 IU/L
Na [2]: 141.6 meq/L
PL [2]: 143 mg/dL
RALB [2]: 2.6 g/dL
TBIL [2]: 0.052 mg/dL
TC [2]: 70.4 mg/dL
TG [2]: 114.4 mg/dL
TP [2]: 5.8 g/dL
gamma-GTP [2]: 1 IU/L
A/G [3]: 0.9
ALP [3]: 1350 IU/L
ALT [3]: 37.4 IU/L
AST [3]: 62.8 IU/L
BUN [3]: 16 mg/dL
CRE [3]: 0.2 mg/dL
Ca [3]: 11.1 mg/dL
Cl [3]: 103 meq/L
DBIL [3]: 0.014 mg/dL
GLC [3]: 188.8 mg/dL
IP [3]: 7.8 mg/dL
K [3]: 3.9 meq/L
LDH [3]: 50.6 IU/L
Na [3]: 140.6 meq/L
PL [3]: 145.2 mg/dL
RALB [3]: 2.7 g/dL
TBIL [3]: 0.052 mg/dL
TC [3]: 71.8 mg/dL
TG [3]: 109 mg/dL
TP [3]: 5.8 g/dL
gamma-GTP [3]: 1 IU/L
A/G [4]: 0.8
ALP [4]: 1073.6 IU/L
ALT [4]: 43.8 IU/L
AST [4]: 65.2 IU/L
BUN [4]: 17 mg/dL
CRE [4]: 0.2 mg/dL
Ca [4]: 10.6 mg/dL
Cl [4]: 105.2 meq/L
DBIL [4]: 0.006 mg/dL
GLC [4]: 184.4 mg/dL
IP [4]: 6.5 mg/dL
K [4]: 3.8 meq/L
LDH [4]: 56.2 IU/L
Na [4]: 142 meq/L
PL [4]: 125.4 mg/dL
RALB [4]: 2.7 g/dL
TBIL [4]: 0.062 mg/dL
TC [4]: 63.2 mg/dL
TG [4]: 84.4 mg/dL
TP [4]: 6.1 g/dL
gamma-GTP [4]: 1 IU/L
TERMINAL_BW [5]: 230.5 g
APTT [5]: 16.8 s
Bas [5]: 0%
Eos [5]: 1.4%
Fbg [5]: 274.2 mg/dL
Hb [5]: 14.1 g/dL
Ht [5]: 42.6%
Lym [5]: 74.8%
MCH [5]: 20.7 pg
MCHC [5]: 33.1%
MCV [5]: 62.5 fL
Mono [5]: 2.8%
Neu [5]: 20.6%
PT [5]: 13.2 s
Plat [5]: 128.6 x10_4/uL
RBC [5]: 682.6 x10_4/ul
Ret [5]: 4.8%
WBC [5]: 104.1 x10_2/uL
KIDNEY_L [5]: 1 g
KIDNEY_R [5]: 1 g
KIDNEY_TOTAL [5]: 2 g
LIVER [5]: 11.1 g
A/G [5]: 0.8
ALP [5]: 1652 IU/L
ALT [5]: 49.2 IU/L
AST [5]: 62.4 IU/L
BUN [5]: 16.4 mg/dL
CRE [5]: 0.2 mg/dL
Ca [5]: 11.3 mg/dL
Cl [5]: 103.4 meq/L
DBIL [5]: 0.01 mg/dL
GLC [5]: 174.6 mg/dL
IP [5]: 8.3 mg/dL
K [5]: 4.5 meq/L
LDH [5]: 73.8 IU/L
Na [5]: 140 meq/L
PL [5]: 161 mg/dL
RALB [5]: 2.7 g/dL
TBIL [5]: 0.056 mg/dL
TC [5]: 82.2 mg/dL
TG [5]: 112 mg/dL
TP [5]: 5.7 g/dL
gamma-GTP [5]: 1 IU/L
TERMINAL_BW [6]: 262.7 g
TERMINAL_BW [7]: 307.6 g
TERMINAL_BW [8]: 370.8 g
APTT [6]: 17.8 s
Bas [6]: 0%
Eos [6]: 1.2%
Fbg [6]: 288 mg/dL
Hb [6]: 14 g/dL
Ht [6]: 42.2%
Lym [6]: 76.6%
MCH [6]: 20.8 pg
MCHC [6]: 33.3%
MCV [6]: 62.6 fL
Mono [6]: 3.2%
Neu [6]: 18.6%
PT [6]: 13.3 s
Plat [6]: 125.3 x10_4/uL
RBC [6]: 673.8 x10_4/ul
Ret [6]: 4.7%
WBC [6]: 87.1 x10_2/uL
APTT [7]: 16.8 s
Bas [7]: 0.2%
Eos [7]: 1%
Fbg [7]: 271 mg/dL
Hb [7]: 14.9 g/dL
Ht [7]: 44.3%
Lym [7]: 72.8%
MCH [7]: 20.1 pg
MCHC [7]: 33.6%
MCV [7]: 59.8 fL
Mono [7]: 2.2%
Neu [7]: 23%
PT [7]: 13.2 s
Plat [7]: 114.6 x10_4/uL
RBC [7]: 742 x10_4/ul
Ret [7]: 3.8%
WBC [7]: 103.9 x10_2/uL
APTT [8]: 17.8 s
Bas [8]: 0%
Eos [8]: 1.6%
Fbg [8]: 278.4 mg/dL
Hb [8]: 15.8 g/dL
Ht [8]: 45.5%
Lym [8]: 80%
MCH [8]: 19.3 pg
MCHC [8]: 34.7%
MCV [8]: 55.5 fL
Mono [8]: 2%
Neu [8]: 15%
PT [8]: 13.3 s
Plat [8]: 111.2 x10_4/uL
RBC [8]: 818.8 x10_4/ul
Ret [8]: 2.5%
WBC [8]: 133.5 x10_2/uL
KIDNEY_L [6]: 1.1 g
KIDNEY_R [6]: 1.2 g
KIDNEY_TOTAL [6]: 2.3 g
KIDNEY_L [7]: 1.2 g
KIDNEY_R [7]: 1.2 g
KIDNEY_TOTAL [7]: 2.3 g
KIDNEY_L [8]: 1.2 g
KIDNEY_R [8]: 1.3 g
KIDNEY_TOTAL [8]: 2.5 g
LIVER [6]: 11.9 g
LIVER [7]: 12.6 g
LIVER [8]: 13.4 g
A/G [6]: 0.9
ALP [6]: 1461.2 IU/L
ALT [6]: 55 IU/L
AST [6]: 74.2 IU/L
BUN [6]: 16.4 mg/dL
CRE [6]: 0.2 mg/dL
Ca [6]: 11 mg/dL
Cl [6]: 103.2 meq/L
DBIL [6]: 0.006 mg/dL
GLC [6]: 171.6 mg/dL
IP [6]: 8 mg/dL
K [6]: 4.3 meq/L
LDH [6]: 62 IU/L
Na [6]: 141 meq/L
PL [6]: 146 mg/dL
RALB [6]: 2.7 g/dL
TBIL [6]: 0.05 mg/dL
TC [6]: 72.6 mg/dL
TG [6]: 94 mg/dL
TP [6]: 5.7 g/dL
gamma-GTP [6]: 1 IU/L
A/G [7]: 0.9
ALP [7]: 1425.6 IU/L
ALT [7]: 41.8 IU/L
AST [7]: 68.2 IU/L
BUN [7]: 16.8 mg/dL
CRE [7]: 0.2 mg/dL
Ca [7]: 11 mg/dL
Cl [7]: 102.6 meq/L
DBIL [7]: 0.008 mg/dL
GLC [7]: 181 mg/dL
IP [7]: 7.9 mg/dL
K [7]: 3.9 meq/L
LDH [7]: 54 IU/L
Na [7]: 140.6 meq/L
PL [7]: 148.4 mg/dL
RALB [7]: 2.7 g/dL
TBIL [7]: 0.056 mg/dL
TC [7]: 80.8 mg/dL
TG [7]: 83.4 mg/dL
TP [7]: 5.9 g/dL
gamma-GTP [7]: 1 IU/L
A/G [8]: 0.8
ALP [8]: 1094.8 IU/L
ALT [8]: 42.6 IU/L
AST [8]: 70.4 IU/L
BUN [8]: 18 mg/dL
CRE [8]: 0.3 mg/dL
Ca [8]: 10.6 mg/dL
Cl [8]: 103 meq/L
DBIL [8]: 0.012 mg/dL
GLC [8]: 169 mg/dL
IP [8]: 7.2 mg/dL
K [8]: 3.9 meq/L
LDH [8]: 55.6 IU/L
Na [8]: 141.8 meq/L
PL [8]: 136.2 mg/dL
RALB [8]: 2.8 g/dL
TBIL [8]: 0.062 mg/dL
TC [8]: 66.2 mg/dL
TG [8]: 87.2 mg/dL
TP [8]: 6.3 g/dL
gamma-GTP [8]: 1 IU/L

Source: ChEMBL document CHEMBL3885861, “Open TG-GATES”
